Test results from patent US20040053826A1, “Uses of polypeptides” (priority 2000, published 2004).
Bridge positions count the residues as written; N and C are the ends. Ends that are not written are not given here.

How the values were obtained:
Wistar male rats [1] = test: Locomotion measurement: effects of diazepam on locomotion induced by intraventricular polypeptide (SEQ ID NO: 9) or PACAP38; type: in vivo, rat
Text: (§1) Each of Wistar male rats (8 weeks old) was anesthetized with pentobarbital and fixed on a stereotaxic apparatus. A guide cannula (AG-8, Eicom) was inserted into the lateral ventricle of each rat (AP: +8.1 mm, L: 1.8 mm, H: +7.1 mm). The rats were then allowed to recover for at least one week before the experiment. During the recovery period, handling was made every day to reduce stresses resulting from intraventricular administration.
(§2) The cannulated rats were transferred to a locomotion testing system (Supermex, Muromachi Kikai Co., Ltd.) and acclimatized overnight. The rats were transferred from the locomotion testing system and subcutaneously administered with diazepam (1 mg/kg). An hour later, the rats were intraventricularly administered with the polypeptide (SEQ ID NO: 9; 10 nmol) or PACAP38 (3 nmol) dissolved in phosphate buffered saline (PBS) at a flow rate of 2.5 μl/min for 4 minutes. Immediately after the administration, the rats were returned to the locomotion testing system and tested for their spontaneous locomotion (FIG. 4).

C57BL/6N mice [2] = test: Elevated plus maze test; type: in vivo, mouse; settings: for (Open arm entries)/(open arm entries + closed arm entries): 30 minutes after administration, tested over 5 minutes
Text: An acrylic maze having 4 arms (25 cm long, 8 cm wide) placed in the shape of a cross (elevated plus maze) was positioned in a sound-proof chamber under low illumination (0.5 lux). Two opposite arms of the elevated plus maze were enclosed by walls (closed arms) and the other two arms were wall-less (open arms). The maze was elevated 25 cm above the floor (FIG. 5).
(§3) After C57BL/6N mice were acclimatized in the laboratory, PBS containing the polypeptide (SEQ ID NO: 9; 1 nmol or 3 nmol) or PBS alone was administered in a volume of 5 μl into the lateral ventricle of each mouse using a double-needle (Matsumoto Seisakusho) under ether anesthesia. Thirty minutes after the administration, each mouse was placed on the elevated plus maze and tested over 5 minutes for the number of entries into each arm and the time spent on open arms.

Wistar male rats [3] = test: Locomotion measurement (spontaneous locomotion and number of rearings) after administration into the lateral ventricle; type: in vivo, rat
Text: as §1, with “Wistar” for “Each of Wistar”, “rats (9” for “rats (8”, “old) were” for “old) was”, “and” for “and fixed on”, “a” for “a stereotaxic apparatus. A”
On the day before the experiment, the rats were transferred to a locomotion testing system for acclimation purposes. Under unanesthetized and unrestrained conditions, a microinjection cannula was attached to the guide cannula through which each rat was administered with the polypeptide (SEQ ID NO: 9; 10 nmol) dissolved in phosphate buffered saline (PBS) or PBS alone at a rate of 5 μl/min for 2 minutes. Immediately after the administration, the rats were returned to the locomotion testing system (Supermex, Muromachi Kikai Co., Ltd.) and tested for their spontaneous locomotion and the number of rearings (FIG. 1).
Wistar male rats (9 weeks old) were anesthetized with pentobarbital and a guide cannula (AG-8, Eicom) was inserted into the lateral ventricle of each rat (AP: 8.1 mm, L: 1.8 mm, H: 7.1 mm). The rats were then allowed to recover for at least one week before the experiment. During the recovery period, handling was made every day to reduce stresses resulting from intraventricular administration.
On the day before the experiment, the rats were transferred to a locomotion testing system for acclimation purposes. Under unanesthetized and unrestrained conditions, a microinjection cannula was attached to the guide cannula through which each rat was administered with the polypeptide (SEQ ID NO: 9; 1 nmol) dissolved in PBS or PBS alone in a volume of 10 μl (5 μl/min for 2 minutes). Immediately after the administration, the rats were returned to the locomotion testing system (Supermex, Muromachi Kikai Co., Ltd.) and tested for their spontaneous locomotion and the number of rearings (FIG. 2).
as §1
as §2, with “and” for “and subcutaneously administered with diazepam (1 mg/kg). An hour later, the rats were”, “9; 1 nmol or” for “9;”, “10” for “10 nmol) or PACAP38 (3”, “(PBS) or PBS alone” for “(PBS)”, “5” for “2.5”, “and the number of rearings.” for “(FIG. 4).”

C57BL/6N mice [4] = test: Hole board test; type: in vivo, mouse; settings: 0.1, 0.3 or 3 nmol into the lateral ventricle, 30 minutes after administration, over 5 minutes
Description: A polyvinyl chloride box having 4 holes (diameter: 3.8 cm) at its bottom was used as a hole board. Locomotion on the hole board was measured with a Supermex sensor (Muromachi Kikai Co., Ltd.). To measure the number of head dippings, MRS-110RX infrared-scanning sensors (Muromachi Kikai Co., Ltd.) were provided immediately below the respective holes.
as §3, with “9; 0.1 nmol, 0.3” for “9; 1”, “placed in” for “placed on”, “the center of the hole board” for “the elevated plus maze”, “for locomotion and” for “for”, “of head dippings.” for “of entries into each arm and the time spent on open arms.”

[5] = Example 1, 10 nmol into the lateral ventricle
[6] = Example 2, 1 nmol into the lateral ventricle
[7] = Example 3, 10 nmol intraventricularly

## CN1C(=O)CN=C(c2ccccc2)c2cc(Cl)ccc21 [Diazepam, diazepam]
Wistar male rats [1]; diazepam 1 mg/kg subcutaneously 1 hour before PACAP38 3 nmol intraventricularly
  effect on the increase in locomotion induced by PACAP38: dose not affect
Wistar male rats [1]; diazepam 1 mg/kg subcutaneously 1 hour before polypeptide (SEQ ID NO: 9) 10 nmol intraventricularly
  effect on the increase in locomotion induced by the polypeptide (SEQ ID NO: 9): significantly inhibits

## polypeptide (SEQ ID NO: 9): bovine SENR ligand peptide; the 6th and 11th cysteine residues form an intramolecular disulfide bond (GPSSECFWKYCV; disulfide 6-11)
C57BL/6N mice [2]; 1 nmol into the lateral ventricle, n=20
  (Open arm entries)/(open arm entries + closed arm entries): 0.131 ± 0.009
C57BL/6N mice [2]; 1 nmol or 3 nmol into the lateral ventricle
  probability to select open arms: reduced
C57BL/6N mice [2]; 3 nmol into the lateral ventricle, n=20, *p < 0.05, Dunnett
  (Open arm entries)/(open arm entries + closed arm entries): 0.065 ± 0.018*
Wistar male rats [3]; [5]
  locomotion after the initial decrease: increase in their locomotion
  number of rearings: same effects as found in spontaneous locomotion
  spontaneous locomotion immediately after the administration, as compared with the control rats: tended to decrease
Wistar male rats [3]; [6]
  inhibition against a transient increase in locomotion as observed in 10 nmol administration: did not show such an inhibition
  locomotion from immediately after the administration: increase in their locomotion
Wistar male rats [3]; Example 3, 1 nmol intraventricularly
  locomotion and the number of rearings from immediately after the administration: increases
Wistar male rats [3]; [7]
  duration of the decreases in locomotion and number of rearings: about 10 minutes
  duration of the increase in locomotion: about 1 hour
  locomotion and the number of rearings immediately after the administration: decreases
  locomotion following the transient decrease: increase in locomotion
Wistar male rats [3]; Example 3, 10 nmol intraventricularly, less significant tendency to increase
  number of rearings: 51.0±13.4 times/90 min
C57BL/6N mice [4]
  locomotion on the hole board: no change
  number of head dippings: significant decrease

## PACAP38: PACAP38 known to have the ability to increase locomotion (HSDGIFTDSYSRYRKQMAVKKYLAAVLGKRYKQRVKNK; ends and bridges not checked; UniProt P18509 132-169, looked up)
Wistar male rats [1]; PACAP38 3 nmol intraventricularly
  spontaneous locomotion: increase in locomotion
